Data: patent US9266939B2, “Compositions comprising natriuretic peptides and methods of use thereof” (Alexion Pharmaceuticals, Inc., priority 2010, dated 2016)
Peptide text beside a SMILES is read from it.

molecular target: neutral endopeptidase (NEP) (Homo sapiens, UniProt P08473); assay: in vitro; settings: isolated enzyme neprilysin, pH 7.5
Sequence (P08473 whole entry): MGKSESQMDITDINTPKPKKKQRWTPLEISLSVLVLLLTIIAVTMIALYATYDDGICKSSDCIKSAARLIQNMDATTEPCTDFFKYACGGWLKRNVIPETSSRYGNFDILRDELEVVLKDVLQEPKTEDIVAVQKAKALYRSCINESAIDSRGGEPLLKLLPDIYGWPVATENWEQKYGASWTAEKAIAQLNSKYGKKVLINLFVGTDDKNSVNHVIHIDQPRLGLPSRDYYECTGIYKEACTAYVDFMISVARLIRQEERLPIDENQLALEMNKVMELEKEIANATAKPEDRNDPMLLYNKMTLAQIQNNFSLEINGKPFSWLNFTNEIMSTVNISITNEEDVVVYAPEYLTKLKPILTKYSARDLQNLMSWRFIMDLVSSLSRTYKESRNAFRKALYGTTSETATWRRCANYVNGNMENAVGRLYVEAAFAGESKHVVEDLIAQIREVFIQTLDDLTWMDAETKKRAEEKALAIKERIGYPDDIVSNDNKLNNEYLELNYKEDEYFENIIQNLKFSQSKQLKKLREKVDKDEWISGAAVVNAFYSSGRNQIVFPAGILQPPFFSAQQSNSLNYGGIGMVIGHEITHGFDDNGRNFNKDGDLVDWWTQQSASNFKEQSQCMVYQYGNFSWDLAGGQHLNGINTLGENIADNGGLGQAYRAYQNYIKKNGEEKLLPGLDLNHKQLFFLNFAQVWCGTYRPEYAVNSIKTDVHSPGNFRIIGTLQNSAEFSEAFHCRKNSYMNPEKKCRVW

How did the remaining at 4 h turn out when CC[C@H](C)[C@@H]1NC(=O)[C@H](CCCNC(=N)N)NC(=O)[C@H](CC(=O)O)NC(=O)[C@H](CC(C)C)NC(=O)[C@H](CCCCN)NC(=O)[C@H](CC(C)C)NC(=O)CNC(=O)[C@H](Cc2ccccc2)NC(=O)[C@@H](NC(=O)CNC(=O)[C@H](CCCCN)NC(=O)[C@H](CO)NC(=O)[C@H](CC(C)C)NC(=O)CNC(=O)CNC(=O)[C@H](CO)NC(=O)[C@H](CO)NC(=O)[C@H](C)NC(=O)[C@H](C)NC(=O)[C@@H]2CCCN2C(=O)[C@H](CCCNC(=N)N)NC(=O)[C@@H]2CCCN2C(=O)[C@H](CC(N)=O)NC(=O)[C@H](C)NC(=O)[C@@H]2CCCN2C(=O)[C@H](CO)NC(=O)[C@@H](NC(=O)[C@H](CO)NC(=O)[C@H](C)N)[C@@H](C)O)CSSC[C@@H](C(=O)O)NC(=O)CNC(=O)[C@H](CC(C)C)NC(=O)CNC(=O)[C@H](CO)NC(=O)[C@H](CCSC)NC(=O)[C@H](CO)NC(=O)CNC1=O [CNP-Nterm2 [C5]] (HELM PEPTIDE1{A.S.T.S.P.A.N.P.R.P.A.A.S.S.G.G.L.S.K.G.C.F.G.L.K.L.D.R.I.G.S.M.S.G.L.G.C}$PEPTIDE1,PEPTIDE1,21:R3-37:R3$$$V2.0) was run?
The remaining at 4 h was 106%.

For CC[C@H](C)[C@@H]1NC(=O)[C@H](CCCNC(=N)N)NC(=O)[C@H](CC(=O)O)NC(=O)[C@H](CC(C)C)NC(=O)[C@H](CCCCN)NC(=O)[C@H](CC(C)C)NC(=O)CNC(=O)[C@H](Cc2ccccc2)NC(=O)[C@@H](NC(=O)CNC(=O)[C@H](CCCCN)NC(=O)[C@H](CO)NC(=O)[C@H](CC(C)C)NC(=O)CN)CSSC[C@@H](C(=O)N2CCC[C@H]2C(=O)N[C@@H](CO)C(=O)N[C@@H](CO)C(=O)N[C@@H](C)C(=O)N[C@@H](C)C(=O)N[C@@H](CCCNC(=N)N)C(=O)N[C@@H](CCCNC(=N)N)C(=O)O)NC(=O)CNC(=O)[C@H](CC(C)C)NC(=O)CNC(=O)[C@H](CO)NC(=O)[C@H](CCSC)NC(=O)[C@H](CO)NC(=O)CNC1=O [CDNP29-S3A4A5R6 [C14]], which remaining at 4 h is on record?
The remaining at 4 h was 99%.

With CC[C@H](C)[C@@H]1NC(=O)[C@H](CCCNC(=N)N)NC(=O)[C@H](CC(=O)O)NC(=O)[C@H](CC(C)C)NC(=O)[C@H](CCCCN)NC(=O)[C@H](CC(C)C)NC(=O)CNC(=O)[C@H](Cc2ccccc2)NC(=O)[C@@H](NC(=O)CNC(=O)[C@H](CCCCN)NC(=O)[C@H](CO)NC(=O)[C@H](CC(C)C)NC(=O)CN)CSSC[C@@H](C(=O)N2CCC[C@H]2C(=O)N[C@@H](CO)C(=O)N[C@@H](CO)C(=O)N[C@@H](C)C(=O)N[C@@H](C)C(=O)N[C@@H](CCCNC(=N)N)C(=O)N[C@@H](CCCNC(=N)N)C(=O)N2CCC[C@H]2C(=O)N[C@@H](CC(N)=O)C(=O)N[C@@H](C)C(=O)N2CCC[C@H]2C(=O)N[C@@H](CO)C(=O)N[C@H](C(=O)N[C@@H](CO)C(=O)N[C@@H](C)C(=O)O)[C@@H](C)O)NC(=O)CNC(=O)[C@H](CC(C)C)NC(=O)CNC(=O)[C@H](CO)NC(=O)[C@H](CCSC)NC(=O)[C@H](CO)NC(=O)CNC1=O [CDNP-S3A4A5R6 [C13]] (HELM PEPTIDE1{G.L.S.K.G.C.F.G.L.K.L.D.R.I.G.S.M.S.G.L.G.C.P.S.S.A.A.R.R.P.N.A.P.S.T.S.A}$PEPTIDE1,PEPTIDE1,6:R3-22:R3$$$V2.0) as the compound, how does the remaining at 4 h read?
Its remaining at 4 h is 100%.
